PMC5951806, “Rapid labelling and covalent inhibition of intracellular native proteins using ligand-directed N-acyl-N-alkyl sulfonamide” (Nature Communications, 2018)

Key:
Test in all cases: TMT LC-MSMS of 11-labelled proteins
Format in all cases: cell-based
[1] = biological target: Cytochrome b-c1 complex subunit 1, mitochondrial (UQCRC1) (Homo sapiens, UniProt P31930)
Description: (§1) The labelled proteins were enriched by immunoprecipitation with an anti-fluorescein antibody and tryptically digested in gel. Digested peptides were modified with Light- (L-), Medium- (M-), or Heavy- (H-) TMT reagent for samples treated with 11, 11 with PU-H71 (as competitive condition), or DMSO (vehicle), respectively, and mixed in a 1:1:1 ratio for LC-MSMS analysis. We performed three experimental replicates, in which proteins detected and quantified at least twice were selected as identified proteins. According to the related approach of Cravatt et al[44], the proteins having L/H (11/DMSO) ratios >5 were defined as 11-labelled proteins. […] On the basis of these criteria, we identified 6 proteins that react with 11, including three ligand-specific targets (Hsp90α (HSP90AA1), Hsp90β (HSP90AB1), and Grp94 (HSP90B1)) and three off-targets (Trifunctional enzyme subunit α (HADHA), Tubulin-α (TUBA1B), and ADP/ATP translocase 3 (SLC25A6)) (Fig. 5d, e and Supplementary Data 1). […] Grp94, a HSP90 isomer, was previously reported to be a PU-H71 specific target. TRAP-1, another Hsp90 isomer that can bind PU-H71, on the other hand, was not identified as 11-target by our criteria.
(§2) SKBR3 human breast cancer cells (2.0 × 10^6 cells) were seeded on a 10 cm dish and cultured for 3 days in McCoy’s 5A in a 5% CO2 humidified chamber at 37 °C. […] As competitive experiments, the labelling was conducted in the presence of PU-H71 (10 µM). After labelling, the cells were washed twice with PBS, and lysed with RIPA buffer. […] The supernatant was mixed with chilled acetone and incubated overnight at −80 °C. The protein precipitates were solubilized by sonication in 1 mL of RIPA buffer containing 1% SDS, and then 10-fold diluted with RIPA buffer to reduce SDS concentration to c.a. 0.1%. The protein solution (containing 1 mg of protein) was mixed with Protein G Sepharose 4 Fast Flow (GE Healthcare) and rotated at 4 °C for 1 h. After removal of the beads, the remaining supernatant was mixed with anti-fluorescein antibody (Abcam, ab19491, 7:10000) and rotated at 4 °C for 1 h, followed by addition of fresh Protein G Sepharose 4 Fast Flow and further incubation at 4 °C for 4 h. The beads were washed five times with RIPA buffer and once with PBS. Proteins were eluted from the beads by addition of 2 × sample buffer containing 100 mM DTT and boiling at 95 °C for 5 min. The samples were subjected to a 7.5% SDS–PAGE gel (Mini-PROTEAN TGX Gels, BioRad), and electrophoresed as the migration distance of dye front is about 10 mm. Each lane was excised (height, 10 mm), and treated with a 47.5% methanol / 47.5% pure water / 5% acetic acid for 20 min, a 50% methanol / 50% pure water for 10 min, and in pure water for 10 min. The gel pieces were dehydrated with 100% acetonitrile, and then swelled with 200 μL of 100 mM TEAB (triethylamine bicarbonate) buffer containing 10 mM DTT and heated at 56 °C for 30 min. The solutions were replaced with 200 µL of 100 mM TEAB buffer containing 55 mM iodoacetamide and incubated for 45 min in the dark. The gel pieces were washed with 100 mM TEAB buffer and dehydrated in acetonitrile. This step was repeated once. The gels were reswelled in 100 mM TEAB buffer containing 10 ng/μL Sequencing Grade Trypsin (Promega) and incubated overnight at 37 °C. To the gels, 50 μL of an extraction solution (50% acetonitrile, 0.1% TFA) was added. After 10 min incubation, the supernatants were collected to new tubes, and this process was repeated twice. Extracted peptides were dried in vacuo and reconstituted with 25 μL of 100 mM TEAB buffer.

[2] = biological target: T1, ADP/ATP translocase 2 (SLC25A5) (Homo sapiens, UniProt P05141)
T1 sequence (P05141 1-298): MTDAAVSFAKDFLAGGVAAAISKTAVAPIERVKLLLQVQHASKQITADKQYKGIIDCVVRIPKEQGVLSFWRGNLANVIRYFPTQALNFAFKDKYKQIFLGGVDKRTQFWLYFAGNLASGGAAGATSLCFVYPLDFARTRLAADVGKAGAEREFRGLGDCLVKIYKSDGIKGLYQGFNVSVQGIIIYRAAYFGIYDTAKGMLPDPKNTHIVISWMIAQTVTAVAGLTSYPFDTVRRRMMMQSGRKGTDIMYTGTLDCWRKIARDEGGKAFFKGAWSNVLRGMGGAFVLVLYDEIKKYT
Description: as §1, §2

[3] = biological target: Trifunctional enzyme subunit alpha, mitochondrial (HADHA) (Homo sapiens, UniProt P40939)
Chain of Trifunctional enzyme subunit alpha, mitochondrial (HADHA) (P40939 37-763): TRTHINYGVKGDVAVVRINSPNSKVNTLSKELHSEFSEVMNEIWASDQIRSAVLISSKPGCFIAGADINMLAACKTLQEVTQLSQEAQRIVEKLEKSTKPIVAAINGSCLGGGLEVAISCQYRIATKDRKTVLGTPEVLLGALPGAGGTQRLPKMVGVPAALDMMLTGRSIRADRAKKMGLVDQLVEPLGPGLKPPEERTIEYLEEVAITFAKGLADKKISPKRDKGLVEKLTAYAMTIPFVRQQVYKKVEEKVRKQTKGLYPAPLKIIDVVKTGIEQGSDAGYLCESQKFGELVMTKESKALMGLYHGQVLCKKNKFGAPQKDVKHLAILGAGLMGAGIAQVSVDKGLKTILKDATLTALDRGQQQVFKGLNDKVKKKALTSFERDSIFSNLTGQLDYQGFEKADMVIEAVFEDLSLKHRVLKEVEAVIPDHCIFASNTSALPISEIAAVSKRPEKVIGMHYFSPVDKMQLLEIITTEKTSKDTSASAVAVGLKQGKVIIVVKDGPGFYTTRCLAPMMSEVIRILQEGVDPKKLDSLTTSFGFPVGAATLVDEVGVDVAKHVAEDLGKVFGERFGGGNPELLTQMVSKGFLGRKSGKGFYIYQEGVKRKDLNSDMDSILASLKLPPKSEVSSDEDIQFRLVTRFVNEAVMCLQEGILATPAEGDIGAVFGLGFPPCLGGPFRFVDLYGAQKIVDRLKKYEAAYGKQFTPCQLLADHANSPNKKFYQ
Chain of Trifunctional enzyme subunit alpha, mitochondrial (HADHA) (P55084 34-474 partner): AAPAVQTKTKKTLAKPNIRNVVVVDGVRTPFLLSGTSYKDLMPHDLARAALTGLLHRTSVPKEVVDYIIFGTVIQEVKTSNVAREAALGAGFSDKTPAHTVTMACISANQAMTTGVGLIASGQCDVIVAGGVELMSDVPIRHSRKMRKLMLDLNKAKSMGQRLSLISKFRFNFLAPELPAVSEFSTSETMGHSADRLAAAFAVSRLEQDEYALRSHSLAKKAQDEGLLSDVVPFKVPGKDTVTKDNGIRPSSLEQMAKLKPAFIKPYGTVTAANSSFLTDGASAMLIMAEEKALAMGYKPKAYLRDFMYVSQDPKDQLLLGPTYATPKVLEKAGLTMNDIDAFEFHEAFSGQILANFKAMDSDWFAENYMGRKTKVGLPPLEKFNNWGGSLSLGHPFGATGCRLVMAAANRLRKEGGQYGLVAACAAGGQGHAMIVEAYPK
Description: as §1, §2

Endoplasmin (HSP90B1) = Endoplasmin (HSP90B1) (Homo sapiens, UniProt P14625)
Chain of Endoplasmin (HSP90B1) (P14625 22-803): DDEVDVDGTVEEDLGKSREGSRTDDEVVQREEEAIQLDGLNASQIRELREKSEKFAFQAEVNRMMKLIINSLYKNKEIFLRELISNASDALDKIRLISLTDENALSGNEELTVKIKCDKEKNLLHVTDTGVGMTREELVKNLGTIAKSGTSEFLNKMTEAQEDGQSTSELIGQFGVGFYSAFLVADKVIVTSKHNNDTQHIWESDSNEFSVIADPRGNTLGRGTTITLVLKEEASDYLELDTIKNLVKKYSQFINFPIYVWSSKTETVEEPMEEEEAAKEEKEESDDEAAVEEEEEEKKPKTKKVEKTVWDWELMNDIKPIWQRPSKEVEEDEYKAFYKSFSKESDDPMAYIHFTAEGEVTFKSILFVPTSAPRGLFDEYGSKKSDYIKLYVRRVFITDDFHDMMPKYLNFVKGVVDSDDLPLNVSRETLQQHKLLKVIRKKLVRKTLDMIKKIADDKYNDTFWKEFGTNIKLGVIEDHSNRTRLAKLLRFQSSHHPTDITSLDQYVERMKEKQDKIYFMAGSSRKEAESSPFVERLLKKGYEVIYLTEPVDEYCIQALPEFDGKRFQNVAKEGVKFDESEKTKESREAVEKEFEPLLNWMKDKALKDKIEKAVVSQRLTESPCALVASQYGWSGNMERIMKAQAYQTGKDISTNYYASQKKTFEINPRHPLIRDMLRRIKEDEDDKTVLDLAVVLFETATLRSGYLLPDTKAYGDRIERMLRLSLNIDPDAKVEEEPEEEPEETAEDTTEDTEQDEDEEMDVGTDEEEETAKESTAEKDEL
Description: as §1, §2

[4] = sheet Merged, SKBR3 cells, 11 0.5 µM 3 h vs DMSO
[5] = sheet Merged, SKBR3 cells, 11 0.5 µM 3 h vs with PU-H71 10 µM
[6] = sheet Exp1, SKBR3 cells, 11 0.5 µM 3 h vs DMSO
[7] = sheet Exp1, SKBR3 cells, 11 0.5 µM 3 h vs with PU-H71 10 µM

For `CC(=O)Oc1ccc2c(c1)Oc1cc(OC(C)=O)ccc1C21OC(=O)c2cc(C(=O)NCCOCCOCCNC(=O)CCCC(=O)N(CC#N)S(=O)(=O)c3ccc(C(=O)NCCCn4c(Sc5cc6c(cc5I)OCO6)nc5c(N)ncnc54)cc3)ccc21` [compound 11], the “Abundance Ratio: (11) / (11 with PU-H71)” value ([1]; Exp3, UQCRC1) was 0.7, the “Abundance Ratio: (11) / (DMSO)” value ([1]; Exp3, UQCRC1) was 3 and the “Abundances (Grouped): 11” value ([1]; Exp3, UQCRC1) was 50.1. The “Abundances (Grouped): 11 with PU-H71” value ([1]; Exp3, UQCRC1) was 71.6, the “Abundance Ratio: (11) / (11 with PU-H71)” value ([1]; sheet Exp2, UQCRC1) was 0.772 and the “Abundance Ratio: (11) / (DMSO)” value ([1]; sheet Exp2, UQCRC1) was 3.724. For the same compound, the “Abundances (Grouped): 11” value ([1]; sheet Exp2, UQCRC1) was 60.7, the “Abundances (Grouped): 11 with PU-H71” value ([1]; sheet Exp2, UQCRC1) was 78.6 and the “Abundance Ratio: (11) / (DMSO)” value [1, 4] was 3.342. For the same compound, the “Abundance Ratio: (11) / (11 with PU-H71)” value [1, 5] was 0.735, the “Abundance Ratio: (11) / (11 with PU-H71)” value ([2]; Exp3, SLC25A5) was 0.462 and the “Abundance Ratio: (11) / (DMSO)” value ([2]; Exp3, SLC25A5) was 2.668. The “Abundances (Grouped): 11” value ([2]; Exp3, SLC25A5) was 245.2, the “Abundances (Grouped): 11 with PU-H71” value ([2]; Exp3, SLC25A5) was 530.2 and the “Abundance Ratio: (11) / (DMSO)” value [2, 6] was 5.138. The “Abundance Ratio: (11) / (11 with PU-H71)” value [2, 7] was 0.711, the “Abundance Ratio: (11) / (11 with PU-H71)” value ([2]; sheet Exp2, SLC25A5) was 0.597 and the “Abundance Ratio: (11) / (DMSO)” value ([2]; sheet Exp2, SLC25A5) was 5.273. For the same compound, the “Abundances (Grouped): 11” value ([2]; sheet Exp2, SLC25A5) was 116, the “Abundances (Grouped): 11 with PU-H71” value ([2]; sheet Exp2, SLC25A5) was 194.4 and the “Abundance Ratio: (11) / (DMSO)” value [2, 4] was 2.741. The “Abundance Ratio: (11) / (11 with PU-H71)” value [2, 5] was 0.563, the “Abundance Ratio: (11) / (11 with PU-H71)” value ([3]; Exp3, HADHA) was 0.887 and the “Abundance Ratio: (11) / (DMSO)” value ([3]; Exp3, HADHA) was 5.561. For the same compound, the “Abundances (Grouped): 11” value ([3]; Exp3, HADHA) was 1575.4, the “Abundances (Grouped): 11 with PU-H71” value ([3]; Exp3, HADHA) was 1776.8 and the “Abundance Ratio: (11) / (DMSO)” value [3, 6] was 7.409. The “Abundance Ratio: (11) / (11 with PU-H71)” value [3, 7] was 0.838, the “Abundance Ratio: (11) / (11 with PU-H71)” value ([3]; sheet Exp2, HADHA) was 0.82 and the “Abundance Ratio: (11) / (DMSO)” value ([3]; sheet Exp2, HADHA) was 5.216. For the same compound, the “Abundances (Grouped): 11” value ([3]; sheet Exp2, HADHA) was 1189.7, the “Abundances (Grouped): 11 with PU-H71” value ([3]; sheet Exp2, HADHA) was 1451.4 and the “Abundance Ratio: (11) / (DMSO)” value [3, 4] was 7.058. The “Abundance Ratio: (11) / (11 with PU-H71)” value [3, 5] was 0.838, the “Abundance Ratio: (11) / (11 with PU-H71)” value (Endoplasmin (HSP90B1); Exp3, HSP90B1) was 1.101 and the “Abundance Ratio: (11) / (DMSO)” value (Endoplasmin (HSP90B1); Exp3, HSP90B1) was 2.844. For the same compound, the “Abundances (Grouped): 11” value (Endoplasmin (HSP90B1); Exp3, HSP90B1) was 158.7, the “Abundances (Grouped): 11 with PU-H71” value (Endoplasmin (HSP90B1); Exp3, HSP90B1) was 144.1 and the “Abundance Ratio: (11) / (DMSO)” value (Endoplasmin (HSP90B1); [6]) was 6.226. The “Abundance Ratio: (11) / (11 with PU-H71)” value (Endoplasmin (HSP90B1); [7]) was 1.266, the “Abundance Ratio: (11) / (11 with PU-H71)” value (Endoplasmin (HSP90B1); sheet Exp2, HSP90B1) was 0.932 and the “Abundance Ratio: (11) / (DMSO)” value (Endoplasmin (HSP90B1); sheet Exp2, HSP90B1) was 2.232. The “Abundances (Grouped): 11” value (Endoplasmin (HSP90B1); sheet Exp2, HSP90B1) was 31.7, the “Abundances (Grouped): 11 with PU-H71” value (Endoplasmin (HSP90B1); sheet Exp2, HSP90B1) was 34 and the “Abundance Ratio: (11) / (DMSO)” value (Endoplasmin (HSP90B1); [4]) was 6.226. The “Abundance Ratio: (11) / (11 with PU-H71)” value (Endoplasmin (HSP90B1); [5]) was 1.266.
